Laboratory results reported in ChEMBL document CHEMBL1131313, “1-[omega-(4-arylpiperazin-1-yl)alkyl]-3-diphenylmethylene-2,5- pyrrolidinediones as 5-HT1A receptor ligands: study of the steric requirements of the terminal amide fragment on 5-HT1A affinity/selectivity” (Bioorg Med Chem Lett, 1998).

Assays:
[1] = target: T1, Adrenergic receptor alpha-1 (Rattus norvegicus, UniProt P15823+P23944+P43140); assay: In vitro binding affinity against Alpha-1 adrenergic receptor in rat cerebral cortex membrane using [3H]prazosin as radioligand; assay type: cell membranes
T1 sequence (P15823 whole entry): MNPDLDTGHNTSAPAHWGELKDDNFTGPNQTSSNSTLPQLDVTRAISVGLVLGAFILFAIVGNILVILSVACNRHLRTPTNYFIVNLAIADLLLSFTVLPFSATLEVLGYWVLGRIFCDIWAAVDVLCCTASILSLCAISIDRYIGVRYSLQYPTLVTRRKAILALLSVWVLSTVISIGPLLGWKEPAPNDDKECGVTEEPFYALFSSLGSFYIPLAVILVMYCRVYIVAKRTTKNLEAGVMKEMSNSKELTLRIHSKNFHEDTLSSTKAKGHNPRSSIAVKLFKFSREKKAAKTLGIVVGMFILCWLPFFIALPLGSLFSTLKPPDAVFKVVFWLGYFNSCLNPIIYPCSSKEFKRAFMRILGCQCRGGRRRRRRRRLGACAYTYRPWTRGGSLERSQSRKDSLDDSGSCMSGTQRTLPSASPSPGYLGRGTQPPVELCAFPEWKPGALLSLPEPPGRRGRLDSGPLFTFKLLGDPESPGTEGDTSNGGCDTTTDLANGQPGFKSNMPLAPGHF
T1 sequence (P23944 whole entry): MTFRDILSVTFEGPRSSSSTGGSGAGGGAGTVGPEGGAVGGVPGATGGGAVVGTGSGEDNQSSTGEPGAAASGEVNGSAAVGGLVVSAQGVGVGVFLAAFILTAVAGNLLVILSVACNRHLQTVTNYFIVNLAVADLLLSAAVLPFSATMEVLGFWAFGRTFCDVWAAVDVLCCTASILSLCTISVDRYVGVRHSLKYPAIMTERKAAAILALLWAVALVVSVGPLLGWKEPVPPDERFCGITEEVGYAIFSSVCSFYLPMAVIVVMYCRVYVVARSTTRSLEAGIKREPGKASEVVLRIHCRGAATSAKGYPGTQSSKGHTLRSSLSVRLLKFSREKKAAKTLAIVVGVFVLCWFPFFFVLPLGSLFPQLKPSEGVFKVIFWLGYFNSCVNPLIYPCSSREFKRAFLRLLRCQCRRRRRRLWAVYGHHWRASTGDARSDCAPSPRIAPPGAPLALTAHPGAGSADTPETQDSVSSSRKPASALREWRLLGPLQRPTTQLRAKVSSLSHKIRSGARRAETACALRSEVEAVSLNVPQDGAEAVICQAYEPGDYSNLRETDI
T1 sequence (P43140 whole entry): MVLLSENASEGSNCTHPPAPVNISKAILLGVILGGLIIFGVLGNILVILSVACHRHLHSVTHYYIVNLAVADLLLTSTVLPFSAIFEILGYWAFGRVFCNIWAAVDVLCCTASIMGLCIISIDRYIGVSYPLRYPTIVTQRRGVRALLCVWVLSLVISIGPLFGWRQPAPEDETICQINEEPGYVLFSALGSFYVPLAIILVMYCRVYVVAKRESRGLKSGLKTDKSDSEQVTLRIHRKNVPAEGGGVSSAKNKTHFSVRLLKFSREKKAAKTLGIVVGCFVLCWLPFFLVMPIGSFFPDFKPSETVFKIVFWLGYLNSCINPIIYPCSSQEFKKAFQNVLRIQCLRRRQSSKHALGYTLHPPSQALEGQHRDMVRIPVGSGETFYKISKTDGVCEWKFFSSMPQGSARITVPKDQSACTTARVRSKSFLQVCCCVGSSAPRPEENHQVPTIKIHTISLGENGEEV

[2] = target: T2, 5-hydroxytryptamine receptor 1A (Rattus norvegicus, UniProt P19327); assay: In vitro binding affinity against serotonin 5-HT1A receptor in rat cerebral cortex membrane using [3H]8-OH-DPAT as radioligand; assay type: cell membranes
T2 sequence (P19327 whole entry): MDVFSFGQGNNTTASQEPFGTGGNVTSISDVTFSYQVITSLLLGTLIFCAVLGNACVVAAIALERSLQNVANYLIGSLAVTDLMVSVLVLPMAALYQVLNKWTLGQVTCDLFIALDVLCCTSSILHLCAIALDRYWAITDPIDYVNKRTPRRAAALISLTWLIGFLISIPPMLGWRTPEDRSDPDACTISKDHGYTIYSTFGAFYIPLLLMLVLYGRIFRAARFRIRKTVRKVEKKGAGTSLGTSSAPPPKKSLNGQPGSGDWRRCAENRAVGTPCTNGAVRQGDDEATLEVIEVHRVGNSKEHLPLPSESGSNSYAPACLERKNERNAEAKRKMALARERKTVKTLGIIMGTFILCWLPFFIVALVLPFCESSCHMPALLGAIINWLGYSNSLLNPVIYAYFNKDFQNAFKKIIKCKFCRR

D(2) dopamine receptor = D(2) dopamine receptor (Rattus norvegicus, UniProt P61169); assay: In vitro binding affinity against Dopamine receptor D2 in rat striatum membrane using [3H]raclopride as radioligand; assay type: cell membranes
D(2) dopamine receptor, sequence (P61169 whole entry): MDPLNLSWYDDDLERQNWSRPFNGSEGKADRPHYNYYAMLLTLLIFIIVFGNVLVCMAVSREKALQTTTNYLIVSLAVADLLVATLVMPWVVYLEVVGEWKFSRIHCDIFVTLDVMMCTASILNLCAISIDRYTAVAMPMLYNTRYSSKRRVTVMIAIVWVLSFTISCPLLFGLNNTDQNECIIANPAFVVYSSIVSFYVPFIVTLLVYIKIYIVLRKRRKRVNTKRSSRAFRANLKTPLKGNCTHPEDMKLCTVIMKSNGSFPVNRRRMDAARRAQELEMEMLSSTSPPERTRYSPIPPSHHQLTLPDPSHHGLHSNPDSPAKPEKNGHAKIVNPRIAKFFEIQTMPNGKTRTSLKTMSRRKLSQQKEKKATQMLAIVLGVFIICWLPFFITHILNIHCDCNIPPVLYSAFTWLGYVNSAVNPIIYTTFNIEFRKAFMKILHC

[3] = target: T1, Adrenergic receptor alpha-1; assay: Antagonistic activity (pA2) at Alpha-1 adrenergic receptor in ring segments of rat thoracic aorta contracted by phenylephrine; assay type: functional, tissue-based
Rattus norvegicus = species on record: Rattus norvegicus; assay: Compound was evaluated for its ability to affect adenylyl cyclase activity in rat hippocampus slice preparation; agonist; assay type: functional; settings: filed as agonist

| Ki [1] [nM] | Ki [2] [nM] | Ki (D(2) dopamine receptor) [nM] | Activity (Rattus norvegicus) | Compound | pA2 [3] |
| --- | --- | --- | --- | --- | --- |
| > 1000 | > 1000 | > 1000 |  | O=C1CC(=C(c2ccccc2)c2ccccc2)C(=O)N1CCN1CCN(c2cccc(Cl)c2)CC1 |  |
| 392 | 49.4 | > 1000 |  | O=C1CC(=C(c2ccccc2)c2ccccc2)C(=O)N1CN1CCN(c2cccc(Cl)c2)CC1 |  |
| > 1000 | 98 | > 1000 |  | O=C1CC(=C(c2ccccc2)c2ccccc2)C(=O)N1CN1CCN(c2ccccc2)CC1 |  |
| > 1000 | 59.6 | > 1000 | Agonist | O=C1CC(=C(c2ccccc2)c2ccccc2)C(=O)N1CN1CCN(c2cccc(C(F)(F)F)c2)CC1 |  |
| 71.5 | 286 | 167 |  | COc1ccccc1N1CCN(CCN2C(=O)CC(=C(c3ccccc3)c3ccccc3)C2=O)CC1 |  |
| 16.4 | 39.3 | 367 |  | O=C1CC(=C(c2ccccc2)c2ccccc2)C(=O)N1CCCCN1CCN(c2cccc(Cl)c2)CC1 |  |
| 39.2 | 127 | 801 |  | O=C1CC(=C(c2ccccc2)c2ccccc2)C(=O)N1CCCN1CCN(c2cccc(Cl)c2)CC1 |  |
| > 1000 | 93.8 | > 1000 |  | COc1ccccc1N1CCN(CN2C(=O)CC(=C(c3ccccc3)c3ccccc3)C2=O)CC1 |  |
| 6.4 | 125 | > 1000 |  | O=C1CC(=C(c2ccccc2)c2ccccc2)C(=O)N1CCCCN1CCN(c2ccccc2)CC1 |  |

Continued, compound first:

| Compound | Ki [1] [nM] | Ki [2] [nM] | Ki (D(2) dopamine receptor) [nM] | Activity (Rattus norvegicus) | pA2 [3] |
| --- | --- | --- | --- | --- | --- |
| O=C1CC(=C(c2ccccc2)c2ccccc2)C(=O)N1CCCN1CCN(c2cccc(C(F)(F)F)c2)CC1 | 62.7 | > 1000 | > 1000 |  |  |
| O=C1CC(=C(c2ccccc2)c2ccccc2)C(=O)N1CCCN1CCN(c2ccccc2)CC1 | 5.7 | > 1000 | > 1000 |  | 7.79 |
| O=C1CC(=C(c2ccccc2)c2ccccc2)C(=O)N1CCN1CCN(c2cccc(C(F)(F)F)c2)CC1 | > 1000 | > 1000 | > 1000 |  |  |
| O=C1CC(=C(c2ccccc2)c2ccccc2)C(=O)N1CCN1CCN(c2ccc(F)cc2)CC1 | 529 | > 1000 | > 1000 |  |  |
| COc1ccccc1N1CCN(CCCN2C(=O)CC(=C(c3ccccc3)c3ccccc3)C2=O)CC1 | 8.1 | 665 | 156 |  |  |
| O=C1CC(=C(c2ccccc2)c2ccccc2)C(=O)N1CCCN1CCN(c2ccc(F)cc2)CC1 | 8.3 | > 1000 | > 1000 |  | 8.63 |
| O=C1CC(=C(c2ccccc2)c2ccccc2)C(=O)N1CCN1CCN(c2ccccc2)CC1 | 214 | > 1000 | > 1000 |  |  |
| O=C1CC(=C(c2ccccc2)c2ccccc2)C(=O)N1CCCCN1CCN(c2ccc(F)cc2)CC1 | 51.8 | 3.3 | 351 | Agonist |  |
| COc1ccccc1N1CCN(CCCCN2C(=O)CC(=C(c3ccccc3)c3ccccc3)C2=O)CC1 | 14.4 | 13.4 | > 1000 |  |  |
| O=C1CC(=C(c2ccccc2)c2ccccc2)C(=O)N1CN1CCN(c2ccc(F)cc2)CC1 | 746 | > 1000 | > 1000 |  |  |
| O=C1CC(=C(c2ccccc2)c2ccccc2)C(=O)N1CCCCN1CCN(c2cccc(C(F)(F)F)c2)CC1 | 60.5 | 15.8 | 689 |  |  |
